Patent US10787477B2, “Solid form of 4′-thio-2′-fluoronucleoside phosphamide compound and preparation method therefor and use thereof” (SICHUAN KELUN-BIOTECH BIOPHARMACEUTICAL CO., LTD., priority 2016, dated 2020)
Values after ≈ are worked out from the molar mass of the structure shown.

Legend:
[1] = Drug excretion experiment in mice (radioactivity recovery in urine and feces); assay type: in vivo, ICR mice
Description: Crystalline form A having a radioisotope ([^14C] crystalline form A) is formulated as a suspension in 0.5% sodium carboxymethylcellulose (CMC-Na), and ICR mice were administered by single gavage at a dose of 117 μCi/4.08 mg/kg [^14C] crystalline form A. The absorption and excretion characteristics of crystalline form A were examined by measuring the radioactivity recovery in urine and feces.

[2] = Equilibrium solubility study in deionized water; assay type: physicochemical; settings: for crystal transformation (XRPD of the solid): dispersed in water for 24 hours
Description: About 2.0 to 5.0 mg of each of crystalline form A, crystalline form B and crystalline form D of the compound of Formula (I) was weighed, added to a 3 ml vial, and added with 1.0 ml of deionized water. The resulting suspension was then placed in a rotary incubator (rotation speed was 25 rpm), and equilibrated in a biochemical incubator at 25° C. for 24 hours before 0.8 ml of the suspension was taken. The suspension was centrifuged (6000 rpm, 15 minutes), the supernatant was detected by HPLC for solubility, and the XRPD pattern of the solid was detected.

[3] = Stability relationship (slurry of crystalline forms in water pre-saturated with form A); assay type: physicochemical; settings: slurried in H2O pre-saturated with crystalline form A, room temperature, about 4 days
Description: An equal weight of each of crystalline forms A, B and D (8 mg each) was weighed and respectively added to a H2O solution (0.3 ml) pre-saturated with a sample of crystalline form A at room temperature, and the resulting suspension was slurried at room temperature for about 4 days before isolation of the solid. The wet and dry samples were respectively subjected to XRPD pattern detection.

[4] = High temperature experiment; assay type: physicochemical; settings: 60° C.
Description: Crystalline form A of the compound of Formula (I) was allowed to stand at a high temperature of 60° C. for 30 days, and samples were taken at Day 0, 5, 10, and 30, respectively, to observe changes in the properties of the samples. The specific optical rotation was measured with a polarimeter, the loss on drying was measured, and the total impurity content was measured by HPLC.

High humidity experiment = assay type: physicochemical; settings: 25° C. and RH 75%
Description: Crystalline form A of the compound of Formula (I) was placed under a high humidity condition of 25° C. and RH 75% for 30 days, and samples were taken at Day 0, 5, 10, and 30, respectively, to observe changes in the properties of the samples. The specific optical rotation was measured with a polarimeter, the loss on drying was measured, and the total impurity content was measured by HPLC.

[5] = Pharmacokinetic experiment in mice; assay type: in vivo, ICR mice; settings: single gavage
Description: Crystalline form A of the compound of Formula (I) was formulated as a suspension in 0.5% sodium carboxymethylcellulose (CMC-Na), and ICR mice were administered by single gavage to investigate the pharmacokinetic characteristics. The single gavage doses were 2 mg/kg, 4 mg/kg and 8 mg/kg, respectively.
The pharmacokinetic parameters were each calculated according to the concentration-time curve of metabolite I in plasma.

[6] = Pharmacokinetic experiment in beagle dogs; assay type: in vivo; settings: single gavage
Description: Crystalline form A of the compound of Formula (I) was formulated as a suspension in 0.5% CMC-Na, and administered by single gavage to beagle dogs. The single gavage doses were 0.1 mg/kg, 0.2 mg/kg and 0.4 mg/kg, respectively.

Light experiment = assay type: physicochemical; settings: light intensity of 4500 1×, 25° C., RH 25%
Description: Crystalline form A of the compound of Formula (I) was placed under the conditions of a light intensity of 4500 1×, 25° C., and RH 25% for 30 days, and samples were taken on Day 0, 5, 11 and 30, respectively, to observe changes in the properties of the samples. The specific optical rotation was measured with a polarimeter, the loss on drying was measured, and the total impurity content was measured by HPLC.

[7] = Solid state stability at 40° C./75% RH; assay type: physicochemical; settings: open container, 8 days
Description: A suitable amount of crystalline form A of the compound of Formula (I) was weighed as a test sample, and it was left in an open container for 8 days under conditions of 40° C./75% RH (RH means relative humidity). The XRPD pattern of the test sample after the treatment was detected, and the purity was measured by HPLC.

[8] = inferred from urine radioactivity recovery

In the case of `CC(C)OC(=O)[C@H](C)N[P@](=O)(OC[C@H]1S[C@@H](n2ccc(N)nc2=O)[C@@H](F)[C@@H]1O)Oc1ccccc1` [[^14C] crystalline form A], the “radioactivity recovery in urine” value ([1]; single gavage 117 μCi/4.08 mg/kg, within 0 to 120 hours) is reported as 78.7% and the “radioactive substances excreted in urine and feces, of the administered amount” value ([1]; single gavage, within 48 hours after administration) is reported as 84.5%.

In the case of `CC(C)OC(=O)[C@H](C)N[P@](=O)(OC[C@H]1S[C@@H](n2ccc(N)nc2=O)[C@@H](F)[C@@H]1O)Oc1ccccc1` [crystalline form A, (S)-isopropyl 2-(((S)-(((2R,3S,4S,5R)-5-(4-amino-2-oxopyrimidin-1(2H)-yl)-4-fluoro-3-hydroxytetrahydrothiophen-2-yl)methoxy)(phenoxy)phosphoryl)amino)propanoate], the solubility at 24 h ([2]; deionized water, 25 °C, water, thermodynamic from solid, deionized water, after 24 hours, HPLC) is reported as about 1000 µg/mL (≈ 1880 µM), the “crystal transformation (XRPD of the solid)” value ([2]; 25° C.) is reported as “did not undergo crystal transformation” and the “stability relationship / conversion of crystalline form (XRPD)” value (shortened to “stability relationship / conversion”) [3] is reported as “more stable at room temperature”. For the same compound, the appearance ([4]; 30 days) was “no change in the appearance”, the “variation in the specific optical rotation” value (shortened to “variation”) ([4]; Day 0 to Day 30) was at most 2 ° and the “loss on drying %” value ([4]; different time points) was at most 1.07%. The “total impurity content detected by HPLC” value ([4]; different time points) was “remained substantially unchanged”, the appearance (High humidity experiment; 30 days) was “no change in the appearance” and the “variation” value (High humidity experiment; Day 0 to Day 30) was at most 1 °. For the same compound, the “loss on drying %” value (High humidity experiment; different time points) was at most 1.0%, the “total impurity content detected by HPLC” value (High humidity experiment; different time points) was “remained substantially unchanged” and the “metabolism upon entering the body” value [5] was “rapidly metabolized as pharmacologically active metabolite I”. The “metabolism upon entering the body” value [6] was “rapidly metabolized as pharmacologically active metabolite I”, the “absolute bioavailability by intragastric administration” value [1, 8] was “above 78.7%” and the “proportion of the drug ingredient absorbed into the blood by oral administration” value [1, 8] was “at least 78.7%”. For the same compound, the appearance (Light experiment; 30 days) was “no change in the appearance”, the “variation” value (Light experiment; Day 0 to Day 30) was at most 3 ° and the “loss on drying %” value (Light experiment; different time points) was at most 1.0%. For the same compound, the “total impurity content detected by HPLC” value (Light experiment; different time points) was “remained substantially unchanged”, the “crystal transformation (XRPD)” value [7] was “did not undergo crystal transformation” and the “relative purity of the sample (HPLC)” value [7] was 99.9%.

With `CC(C)OC(=O)[C@H](C)N[P@](=O)(OC[C@H]1S[C@@H](n2ccc(N)nc2=O)[C@@H](F)[C@@H]1O)Oc1ccccc1` [crystalline form B, (S)-isopropyl 2-(((S)-(((2R,3S,4S,5R)-5-(4-amino-2-oxopyrimidin-1(2H)-yl)-4-fluoro-3-hydroxytetrahydrothiophen-2-yl)methoxy)(phenoxy)phosphoryl)amino)propanoate] the solubility in water ([2]; deionized water, 25° C., after 24 hours, HPLC) was about 1800 µg/mL (≈ 3390 µM), the “crystal transformation (XRPD of the solid)” value ([2]; 25° C.) was “did not undergo crystal transformation” and the “stability relationship / conversion” value [3] was “converted to crystalline form A”.

For `CC(C)OC(=O)[C@H](C)N[P@](=O)(OC[C@H]1S[C@@H](n2ccc(N)nc2=O)[C@@H](F)[C@@H]1O)Oc1ccccc1` [crystalline form D, (S)-isopropyl 2-(((S)-(((2R,3S,4S,5R)-5-(4-amino-2-oxopyrimidin-1(2H)-yl)-4-fluoro-3-hydroxytetrahydrothiophen-2-yl)methoxy)(phenoxy)phosphoryl)amino)propanoate], the “crystal transformation (XRPD of the solid)” value ([2]; 25° C.) was “underwent crystal transformation” and the “stability relationship / conversion” value [3] was “converted to crystalline form A”.
